Assay results taken from ChEMBL document CHEMBL4359925, “Rational discovery of a highly novel and selective mTOR inhibitor” (Bioorg Med Chem Lett, 2019).

Columns and labels:
[1] = target: Serine/threonine-protein kinase mTOR (Homo sapiens, UniProt P42345); assay: Inhibition of human mTOR measured after 30 mins in presence of ATP by Lanthascreen TR-FRET assay
[2] = target: Phosphatidylinositol 4,5-bisphosphate 3-kinase catalytic subunit alpha isoform (Homo sapiens, UniProt P42336); assay: Inhibition of PI3K alpha (unknown origin)
Phosphatidylinositol 4,5-bisphosphate 3-kinase catalytic subunit alpha isoform, sequence (P42336 whole entry, canonical isoform): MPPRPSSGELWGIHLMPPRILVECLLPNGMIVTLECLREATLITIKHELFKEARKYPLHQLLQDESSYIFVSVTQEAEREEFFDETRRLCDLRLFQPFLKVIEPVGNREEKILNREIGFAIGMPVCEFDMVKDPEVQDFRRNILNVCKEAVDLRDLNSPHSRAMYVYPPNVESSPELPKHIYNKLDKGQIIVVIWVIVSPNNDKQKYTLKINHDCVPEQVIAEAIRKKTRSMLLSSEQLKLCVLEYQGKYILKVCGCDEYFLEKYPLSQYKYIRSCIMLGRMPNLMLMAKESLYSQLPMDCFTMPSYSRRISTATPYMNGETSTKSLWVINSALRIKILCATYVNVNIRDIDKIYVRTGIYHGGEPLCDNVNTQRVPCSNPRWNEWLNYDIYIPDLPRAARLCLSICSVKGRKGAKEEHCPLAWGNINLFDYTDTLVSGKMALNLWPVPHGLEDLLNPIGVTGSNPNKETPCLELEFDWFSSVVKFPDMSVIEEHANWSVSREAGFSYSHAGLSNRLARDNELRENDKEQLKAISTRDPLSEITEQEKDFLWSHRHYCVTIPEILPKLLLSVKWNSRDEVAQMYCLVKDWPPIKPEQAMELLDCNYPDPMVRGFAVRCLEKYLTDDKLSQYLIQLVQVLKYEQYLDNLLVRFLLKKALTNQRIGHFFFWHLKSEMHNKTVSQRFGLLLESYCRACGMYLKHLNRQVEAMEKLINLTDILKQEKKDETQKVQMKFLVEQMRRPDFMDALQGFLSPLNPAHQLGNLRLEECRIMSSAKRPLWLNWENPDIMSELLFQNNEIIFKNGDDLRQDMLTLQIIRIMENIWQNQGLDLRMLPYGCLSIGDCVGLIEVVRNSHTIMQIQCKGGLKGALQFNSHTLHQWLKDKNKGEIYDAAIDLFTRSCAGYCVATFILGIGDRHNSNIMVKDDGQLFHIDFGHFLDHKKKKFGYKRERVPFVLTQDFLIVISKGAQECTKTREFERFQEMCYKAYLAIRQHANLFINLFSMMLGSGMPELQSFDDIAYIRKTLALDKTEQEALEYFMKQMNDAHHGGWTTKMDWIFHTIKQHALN

SMILES: CNC(=O)Nc1ccc(-c2ncc3c(n2)N2CCOCC2CC(=O)N3)cc1 (configuration not stated)
- IC50 [1]: 1.58 µM
- IC50 [2]: 2.51 µM
